Where “and” joins values, the source holds several entries; their conditions need not be identical. Equal values may be shown once.
Legend:
[1] = tested on: Thioglycollate-elicited mouse peritoneal macrophages; experiment: In vitro toxicity assay (crystal violet staining, cell numbers); assay type: cell-based; details: for Macrophage survival rate: 24 hours incubation, normalized to vehicle, mean ± SD, one of three experiments; for LD50: mouse peritoneal macrophages, 24 hours
Procedure: Thioglycollate-elicited mouse peritoneal macrophages were washed, counted and seeded (5×10^5 cells per well in 24-well plates) in triplicate wells in medium containing RPMI-1640, L-glutamine, 10% fetal calf serum (FCS) and antibiotics (penicillin/streptomycin). After a recovery period of 24 hours, the tested compound (or controls) was added to the cell medium at doses of 2, 10, 20, 50, 100 or 150 μg/ml, keeping the added volume equal in all treatments by complementing the volume with solvent.
Following addition of the compounds, the cells were incubated for an additional 24 hours, after which the cells were washed, fixed with a solution of 10% methanol/10% acetic acid and stained with crystal violet (0.4% in 20% ethanol). Cell numbers were measured by determining optical density at 595 nm. Cells incubated with vehicle (PBS with 1% ethanol) were used as a control, to which cell numbers in treated samples were normalized. Each experiment was performed three times.

[2] = tested on: phosphotyrosine (p-Tyr) in thioglycollate stimulated mouse macrophages; experiment: Tyrosine phosphorylation assay (Western blot, anti-phosphotyrosine antibody); assay type: cell-based; details: 20 μg/ml, 10 minutes, Western blot (FIG. 1)
Procedure: Thioglycollate stimulated mouse macrophages were treated for 10 minutes with 20 μg/ml of the tested compound in phosphate buffered saline (PBS) with 1% ethanol. Treatment with either 20 μg/ml of phosphatidylcholine or solvent (PBS with 1% ethanol) was used as a negative control. Treatment with 20 μg/ml CI-201 (1-hexadecyl-2-(4′-carboxy)butyl-sn-glycero-3-phosphothiocholine) was used as a positive control.
Proteins with phosphorylated tyrosine were then observed by Western blot, using a monoclonal anti-phosphotyrosine antibody. Western blotting for ERK1/2 was performed as a control for protein loading.

[3] = tested on: Thioglycollate-elicited mouse peritoneal macrophages; experiment: In vitro toxicity assay (crystal violet staining, cell numbers); assay type: cell-based; details: 1, 2.5, 5, 10 or 20 μg/ml
[4] = tested on: IL12/23p40 production by peptidoglycan-activated BMDCs; experiment: In vitro IL12/23p40 assay (ELISA); assay type: cell-based, mouse; details: 1 to 20 μg/ml added for 1 hour, then 24 hours with 10 μg/ml peptidoglycan (FIG. 2)
Procedure: Bone marrow derived cells (BMDCs) were obtained from the femur and tibia of female C57BL mice. Bone-marrow was flushed out femur and tibia with cold RPMI-1640. A cell suspension was prepared, and erythrocytes were removed using red blood cell (RBC) lysis buffer. […] Cells were then washed, resuspended in the same buffer, and depleted from B and T cells on a Midi-Macs separation unit through a LD or LS column (Miltenyi Biotech). The cells were prepared freshly for each experiment.
The depleted bone marrow cells were counted, washed and seeded at a concentration of 10^6 cells/ml in medium containing RPMI-1640, L-glutamine, β-mercaptoethanol, 10% fetal calf serum (FCS), antibiotics (penicillin/streptomycin) and 20 ng/ml of mouse GM-CSF (granulocyte-macrophage colony-stimulating factor). Medium was replaced every other day. On days 5-6 post culturing, cells were collected, counted and seeded at a concentration of 10^6 cells/ml in the above medium. CI-211 was then added for 1 hour. The cells were activated for IL12/23p40 production by incubation for 24 hours with 10 μg/ml peptidoglycan (PGN). Cytokine production from the supernatant was measured by ELISA. Activated cells without CI-211 were used as the control.

Compound | Macrophage survival rate ([1]; 2 μg/ml) | Macrophage survival rate ([1]; 20 μg/ml) | Macrophage survival rate ([1]; 50 μg/ml) | LD50 [1] | tyrosine phosphorylation levels [2] | toxicity at the concentrations used in the IL12/23p40 assay [3] | Macrophage survival rate ([1]; 10 μg/ml) | IL12/23p40 secretion [4]
CCCCCCCCCCCCCCCCOCC(COP(O)(=S)OCCN)OCCCCC(=O)O (stereo not drawn) [CI-212, 1-hexadecyl-2-(4-carboxy)butyl-sn-glycero-3-O-thiophosphorylethanolamine] | 98.7 ± 10.3% and 77.5 ± 5.5% and 80.8 ± 31% | 90.6 ± 21.4% and 75.6 ± 9.5% and 97.5 ± 36.4% | 71.4 ± 11.4% and 55.1 ± 18.9% and 97.1 ± 48.1% | above 50 μg/ml and > 90 μM | reduced | – | – | –
1-hexadecyl-2-(4-carboxy)butyl-sn-glycero-3-thiophosphorylcholine [CI-211] | 124.7 ± 11.4% and 113.2 ± 7% and 90.4 ± 22.4% | – | – | above 100 μg/ml and > 167 μM | reduced | non-toxic | 111.6 ± 28.8% and 118.4 ± 4.2% and 127.9 ± 11.5% | decreased
CCCCCCCCCCCCCCCCOC[C@H](COP(=O)([O-])OCC[N+](C)(C)C)OCCCCC(=O)O [CI-201, 1-hexadecyl 2 (4 carboxy)butyl-sn-glycero-3-phosphocholine, reference compound] | – | – | – | – | reduced | – | – | –

Reference: patent US8999960B2, “Oxidized thiophospholipid compounds and uses thereof” (Vascular Biogenics Ltd., priority 2008, dated 2015)
